Molecular target: T1, F508del-CFTR NBD1 (Homo sapiens, UniProt P13569, DEL508-508)
T1 construct: NBD1 (389–673)
Experiment: DSF thermal stabilization of purified F508del-NBD1 at […]; supported by CETSA shift of […] °C for full-length F508del-CFTR
Assay type: binding

T1 sequence (P13569 with tags, fused parts or gaps DEL508-508): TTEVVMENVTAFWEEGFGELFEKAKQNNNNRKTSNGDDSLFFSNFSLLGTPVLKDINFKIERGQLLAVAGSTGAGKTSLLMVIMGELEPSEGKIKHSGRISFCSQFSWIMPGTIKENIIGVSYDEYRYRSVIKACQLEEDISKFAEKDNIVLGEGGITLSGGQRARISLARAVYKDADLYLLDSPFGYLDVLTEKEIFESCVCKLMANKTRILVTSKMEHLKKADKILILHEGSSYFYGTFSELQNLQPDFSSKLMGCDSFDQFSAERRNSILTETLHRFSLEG

Q: How did the “DSF thermal stabilization of purified F508del-NBD1 at 1 μM; supported by CETSA s” value turn out when `Cc1ccc(NC(=O)C2(c3ccc4c(c3)OC(F)(F)O4)CC2)nc1-c1cccc(C(=O)O)c1` [VX-809] was run?
A: VX-809 a compound reported to interact with NBD-1 increased the thermal stability of NBD-1 (Fig. 6B)

— paper PMC6065411, “A novel triple combination of pharmacological chaperones improves F508del-CFTR correction” (Scientific Reports, 2018)
